# Laboratory results reported in PubChem BioAssay (NCI).
# “And” between values parts separate entries of the source, which are not always exact repeats. Identical values can stand only once.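 Following 48 hours of exposure in 96-well plates, responses at five concentrations were used to interpolate endpoints linearly. GI50 is the concentration that inhibits growth by half. TGI: concentration producing complete growth inhibition.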
# How the values were obtained:
# Assay in all cases: DTP human tumour cell line panel, 48 h
# NCI/ADR-RES ovarian = system: NCI/ADR-RES ovarian
# PC-3 prostate = system: PC-3 prostate
# MDA-MB-435 = system: MDA-MB-435
# RXF 393 renal = system: RXF 393 renal
# RPMI-8226 leukemia = system: RPMI-8226 leukemia
# SK-MEL-28 melanoma = system: SK-MEL-28 melanoma
# COLO 205 colon = system: COLO 205 colon
# MOLT-4 leukemia = system: MOLT-4 leukemia
# OVCAR-3 ovarian = system: OVCAR-3 ovarian
# SF-539 CNS = system: SF-539 CNS
Structure (SMILES),GI50 (NCI/ADR-RES ovarian) [µM],TGI (NCI/ADR-RES ovarian) [µM],GI50 (PC-3 prostate) [µM],TGI (PC-3 prostate),GI50 (MDA-MB-435),TGI (MDA-MB-435),GI50 (RXF 393 renal) [nM],TGI (RXF 393 renal) [µM],GI50 (RPMI-8226 leukemia) [µM],TGI (RPMI-8226 leukemia),GI50 (SK-MEL-28 melanoma),TGI (SK-MEL-28 melanoma),GI50 (COLO 205 colon) [nM],TGI (COLO 205 colon) [µM],GI50 (MOLT-4 leukemia) [µM],TGI (MOLT-4 leukemia),GI50 (OVCAR-3 ovarian) [nM],TGI (OVCAR-3 ovarian) [µM],GI50 (SF-539 CNS) [µM],TGI (SF-539 CNS)
CCOC(=O)C1=C(C)N(Cc2ccc(Cl)cc2Cl)C2(O)C=CC(=O)C3=C(O)c4ccccc4C(=O)C312 (centres undefined),0.888,10.3,2.16,10.5 µM,3.87 µM,13.4 µM,11100,66.5,3.29,13 µM,10.6 µM,40.1 µM,4410,20.6,3.87,> 100 µM,2200,6,–,–
NS(=O)(=O)NCCNc1nonc1C(=Nc1ccc(F)c(Br)c1)NO,> 100,> 100,31.8,> 100 µM,32 µM,> 100 µM,–,–,37.9,> 100 µM,48.3 µM,> 100 µM,47600,> 100,30.8,> 100 µM,34600,> 100,37.5,> 100 µM
CN(CC(=O)Nc1nc2ccccc2[nH]1)S(=O)(=O)c1ccc(Cl)cc1,> 100,> 100,–,–,> 100 µM,> 100 µM,13400,55.6,> 100,> 100 µM,> 100 µM,> 100 µM,> 100000,> 100,> 100,> 100 µM,> 100000,> 100,> 100,> 100 µM
CSc1snc2sc3c(Cl)nnnc3c12,–,–,–,–,–,–,–,25.1,–,56.2 µM,–,23.2 µM,–,24,–,11.4 µM,–,5.72,–,32.1 µM
COc1cc(C2=N/C(=C/c3cccs3)C(=O)O2)cc(OC)c1OC,–,–,–,> 100 µM,–,> 100 µM,–,> 100,–,> 100 µM,–,> 100 µM,–,> 100,–,> 100 µM,–,> 100,–,> 100 µM
Cc1cccc(C(C)(C)C)c1NC(=O)CCc1nc(=S)[nH][nH]1,–,–,–,–,–,–,–,> 100,–,> 100 µM,–,> 100 µM,–,> 100,–,> 100 µM,–,> 100,–,> 100 µM
CCOC(=O)c1cnc2c(ccc3ncccc32)c1NCCCN(CC)CC,–,–,–,–,–,–,–,–,–,> 100 µM,–,> 100 µM,–,> 100,–,72.2 µM,–,> 100,–,–
CC(=O)O[C@@]1(C)[C@@H](C)C(=O)O[C@@H]2CCN3CC=C(COC(=O)[C@]1(C)O)[C@H]23,–,–,–,–,–,–,–,–,–,> 100 µM,–,> 100 µM,–,> 100,–,> 100 µM,–,> 100,–,> 100 µM
CC(C)(C)c1ccc(OCCOCCOc2ccc(C(C)(C)C)cc2S(=O)(=O)Nc2ccc([N+](=O)[O-])cc2)c(S(=O)(=O)Nc2ccc([N+](=O)[O-])cc2)c1,–,–,–,–,–,–,–,> 100,–,–,–,> 100 µM,–,> 100,–,43.9 µM,–,> 100,–,> 100 µM
O=C(O/N=C1/CCC/C1=C\c1ccccc1)c1ccc(Cl)c(Cl)c1,–,–,–,–,–,–,–,> 100,–,> 100 µM,–,> 100 µM,–,> 100,–,> 100 µM,–,> 100,–,> 100 µM
CC(C)=CCC/C(C)=C\CCC1(C)OC(=O)C2CC21 (centres undefined),–,> 100,–,> 100 µM and 85.2 µM,73.9 µM and 23.1 µM,> 100 µM and 56.7 µM,–,92.3,–,68.1 µM and 44.2 µM,> 100 µM and 37.5 µM,> 100 µM,–,> 100,–,50 µM and 35 µM,–,> 100,–,–
Nc1ccc(-c2cccs2)cc1NC(=O)c1ccc(CCCC(=O)Nc2ccc(C3CC3N)cc2)cc1 (centres undefined),> 100,> 100,–,–,1.74 µM,4 µM,2450,30,–,–,–,–,2440,> 100,–,–,1480,3.14,2.42,7.94 µM
O=C1C2C(C(=O)N1c1ccccc1)C1([N+](=O)[O-])C=C3c4ccccc4N(C(=O)c4ccccc4)C32C2C(=O)N(c3ccccc3)C(=O)C21 (centres undefined),–,–,–,–,–,–,–,–,–,–,–,> 100 µM,–,> 100,–,> 100 µM,–,> 100,–,–
COc1ccc2c3c(c(C(=O)c4ccccc4)oc13)CCC2,–,–,–,–,–,–,–,31.3,–,> 100 µM,–,> 100 µM,–,> 100,–,> 100 µM,–,> 100,–,> 100 µM
CC(C(N)C(=O)NC(C(=O)O)C1OC(n2ccc(=O)[nH]c2=O)C(O)C1O)C(O)c1ccc(O)cn1 (centres undefined),–,> 100,–,> 100 µM,–,> 100 µM,–,–,–,> 100 µM,–,> 100 µM,–,> 100,–,> 100 µM,–,> 100,–,> 100 µM
COC(=O)C12OCC34C(CC5C(C)C6=CC(=O)OC6=CC5(C)C3C(O)C1O)OC(=O)C(O)C24 (centres undefined),–,–,–,–,–,–,403,4.49,0.0333,0.116 µM and 0.25 µM,0.0899 µM,0.933 µM and 2.29 µM,252,–,0.0314,0.375 µM and 1.27 µM,282,3.61,0.0328,0.116 µM and 0.397 µM
CC1(N)CCN(c2cnc(-c3cccc(Cl)c3Cl)c(N)n2)CC1,17,> 100,26.7,> 100 µM,28.3 µM,> 100 µM,–,–,13.8,40.1 µM,16.3 µM,32.3 µM,16900,35.5,22.7,99.3 µM,35100,> 100,12.9,31.5 µM
CN(C)CCNc1c2ccccc2nc2oc3ccccc3c12,9,> 100,3.4,19.5 µM,6.9 µM,23 µM,–,–,–,–,11.8 µM,25.3 µM,2430,10.3,3,12.1 µM,8710,51,4.03,15.3 µM
CCc1ccc(C(=Nc2ccc(N(C)C(=O)CN3CCN(C)CC3)cc2)c2c(O)[nH]c3ccc(C(=O)OC)cc23)cc1,–,–,0.292,1.61 µM,0.532 µM,1.9 µM,220,1.2,0.424,1.67 µM,1.17 µM,2.42 µM,319,1.7,0.176,0.908 µM,538,1.96,0.426,1.56 µM
